Reference: publication PMC11874007, “Switching Roles—Exploring Concentration-Dependent Agonistic versus Antagonistic Behavior of Integrin Ligands” (Journal of Medicinal Chemistry, 2025)

Assays:
human αvβ3-integrin = target: T1, human αvβ3-integrin (Homo sapiens, UniProt P05106+P06756); experiment: ELISA-type solid-phase binding assay: soluble αvβ3 competing for immobilized vitronectin; settings: competitive ELISA-type assay, referenced to internal standard cilengitide (L2)
T1 construct: purchased R&D 3050-AV-050

[1] = tested on: FAK, p-FAK, p44/42erk-1/2, p-p44/42erk-1/2 in αvβ3+ M21 cells; experiment: Western blot of FAK and p44/42erk-1/2 expression and activation, M21 cells; assay type: cell-based
Protocol: Since agonistic ligand performance requires integrin activation and signaling, by Western blot analysis, we studied whether the different ligands alter the expression levels and activation states of FAK and p44/42^(erk-1/2). For this, the respective target integrin-expressing tumor cell types were incubated with the corresponding subtype-selective ligand at a concentration of 1 μM for 24 h (Figure 8). […] Signal intensities of FAK and p44/42^(erk-1/2) expression and activation (p-FAK and p-p44/42^(erk-1/2)) on Western blots were evaluated by densitometry. Data are depicted as GAPDH-normalized fluorescence signal intensities as n-fold, by setting values obtained for the respective untreated cells to “1”. […] MAPK p44/42^(erk-1/2) expression was approximately 2.2-fold augmented, p44/42^(erk-1/2) by approximately 2.5-fold. It also raised activation of p-FAK and p-p44/42^(erk-1/2) by approximately 2.2-fold and 3.1-fold, respectively, in α5β1+ OV-MZ-6 cells. […] Additionally, it raised FAK (approximately 1.7-fold) and p-p44/42^(erk-1/2) (approximately 2.4-fold) in α5β1+ OV-MZ-6 cells.
Figure 8 Effects of ligands on cellular expression and activation of integrin-related signaling molecules FAK and p44/42^(erk-1/2). […] Signal intensities for FAK and p-FAK, respectively, were evaluated by use of the Bio-Rad Imager Gel Doc XR+ and a ChemiDoc XRS+ Systems and the software Image Lab. Shown are typical representative Western blot images and the corresponding histograms depicting GAPDH-normalized signal intensities as n-fold by setting the values obtained for untreated cells to “1” (drawn as black line). For each cell line, cutouts of identical gels are depicted.
In order to capture early and transient changes in signaling activation following ligand treatment, we next reduced the observation periods to 5, 30, or 60 min and assessed FAK expression and activation. […] Depicted are typical Western blot images and the corresponding densitometrical evaluations of GAPDH-normalized signal intensities as n-fold, by setting that of the respective untreated cell type to “1” (Figure 9). […]
The kinases (p-)p44/42^(erk-1/2) and (p-)FAK were detected as previously published.[15],[8] Briefly, cells were grown for 18 h on six-well plates in DMEM (0.45 Mio cells/well). After medium exchange, fresh medium with L1–L5 (concentration: 1.0 μM, 2 mL/well) was added, and cells were incubated for another 24 h at 37 °C. In a second series, cells were incubated with L1–L5 (1 μM or 1 nM) for 5, 30, or 60 min. Thereafter, the cellular proteins were extracted and processed by Western blotting. Proteins were visualized using the Pierce ECL chemiluminescent substrate (Thermo Fisher Scientific). Band signal intensities for (p-)p44/42^(erk-1/2) and (p-)FAK were evaluated using the Bio-Rad Imager Gel Doc XR + and ChemiDoc XRS + Systems and the software Image Lab. Differences in protein loading and blotting efficiency were normalized by reprobing the membranes with a monoclonal antibody directed to GAPDH. Signal intensities for protein bands of interest were normalized to those recorded for GAPDH. Typical Western blot images are depicted together with histograms summarizing the mean values of normalized fluorescence signal intensities as n-fold, by setting those obtained for untreated cells to “1”.

αvβ3+ M21 cells = experiment: Wound scratch cell migration assay, M21 cells; assay type: cell-based
Protocol: (§1) As a biological readout for integrin signaling, we analyzed ligand effects on cell adhesion and migration by wound scratch assays (Figure 10A,B). […] Microscopical images were taken directly after wounding the cell monolayers and then after 9, 24, 48, and 72 h, respectively.
(§2) Figure 10 (A) Effect of integrin ligands on cancer cell migration. […] Microscopical measurements of wound gaps were taken directly after setting the wound scratch and then after 9, 24, 48, and 72 h, respectively. Wound scratch assays were repeated at least three times. The extent of wound gap closure [%]/cell coverage was calculated by a python script utilizing Canny’s Edge Detection algorithm as described under Materials and summarized in the corresponding histograms (see also Scheme S5 in the Supporting Information). (B) Adhesion of M21, OV-MZ-6, and HN cells in the presence of the respective integrin targeting ligand at low (1 nM) and high (1 μM) concentrations. […] Depicted are typical microscopical images of the respective cell monolayers.
The assays were performed according to a modified protocol as previously published.[94] Cells were cultivated on fibronectin-coated 12-well cell culture plates until cell monolayers reached an approximately 80% confluency. Then, the wound scratch was set utilizing a 200 μL pipet tip. Subsequently, fresh culture medium was added in the absence or presence of L1–L5 (concentration: 1 μM or 1 nM), and microscopical images (Zeiss, Oberkochen, Germany) were taken at two identical positions of the wound gap directly after wounding and then at 9, 24, 48, or 72 h of further cell cultivation. Each wound scratch assay was repeated three times. A custom python script was implemented to analyze wound gap closure over time: after cropping the images, we used the OpenCV[95] implementation of Canny’s Edge Detection Algorithm[96] to ensure reliable measurements even with variable lighting conditions.[97] As a first step, a 5 × 5 Gaussian filter was applied to remove background noise. The smoothened images were then filtered by a Sobel kernel[98] and the magnitude and direction of the intensity gradient of the images calculated. Then, a non-maximum suppression algorithm was applied to identify relevant pixels that presumably contribute to edges. In a final step, threshold hysteresis was utilized to distinguish true edges from variations in intensity or the remaining background noise. The resulting images were then segmented and binarized by use of a grid filter and analyzed with respect to cell-covered area relative to the start image of each series.

M21 cells = experiment: Cell adhesion in the presence of ligand, M21 cells; assay type: cell-based; settings: 1 μM
Protocol: as §2

αvβ6+ HN cells = experiment: Wound scratch cell migration assay, HN cells; assay type: cell-based; settings: at either concentration (1 nM, 1 μM)
Protocol: as §1
Figure 10 (A) Effect of integrin ligands on cancer cell migration. […] Microscopical measurements of wound gaps were taken directly after setting the wound scratch and then after 9, 24, 48, and 72 h, respectively. Wound scratch assays were repeated at least three times. The extent of wound gap closure [%]/cell coverage was calculated by a python script utilizing Canny’s Edge Detection algorithm as described under Materials and summarized in the corresponding histograms (see also Scheme S5 in the Supporting Information). (B) Adhesion of M21, OV-MZ-6, and HN cells in the presence of the respective integrin targeting ligand at low (1 nM) and high (1 μM) concentrations. […]
The assays were performed according to a modified protocol as previously published.[94] […] The smoothened images were then filtered by a Sobel kernel[98] and the magnitude and direction of the intensity gradient of the images calculated. […] The resulting images were then segmented and binarized by use of a grid filter and analyzed with respect to cell-covered area relative to the start image of each series.

HN cells = experiment: Cell adhesion in the presence of ligand, HN cells; assay type: cell-based; settings: both concentrations (1 nM, 1 μM), 48 h
Protocol: as §2

Row | Compound | IC50 (human αvβ3-integrin) [nM] | FAK expression versus untreated cells ([1]; 1 nM, 5, 30 or 60 min) | p-FAK expression ([1]; 1 nM, 5, 30 or 60 min) | FAK expression versus untreated cells ([1]; 1 μM, 5, 30 or 60 min) | FAK expression, n-fold of untreated cells ([1]; 1 μM, 24 h, GAPDH-normalized) | p-FAK expression, n-fold of untreated cells ([1]; 1 μM, 24 h, GAPDH-normalized) | Effect on wound gap closure / cell migration (αvβ3+ M21 cells; 1 nM) | Effect on wound gap closure / cell migration (αvβ3+ M21 cells; 1 μM) | Cell coverage (wound gap closure) (αvβ3+ M21 cells; 1 μM, within 72 h) | Effect on cell adhesion / attachment (M21 cells) | (p-)p-44/42erk-1/2 ([1]; 1 μM, 24 h) | p-FAK levels versus untreated cells ([1]; both concentrations (1 nM, 1 μM), up to 60 min) | Effect on cell migration (αvβ6+ HN cells) | Adhesive phenotype (HN cells)
1 | C#CCCC(=O)NCCCOc1ccc(C(=O)N[C@H](CC(=O)O)Cc2ccc(OCCCNc3cc(OC)ccn3)cc2)cc1 [L1, (S)-4-(4-(3-((4-Methoxypyridin-2-yl)amino)propoxy)phenyl)-3-(4-(3-(pent-4-ynamido)propoxy)benzamido)butanoic Acid] | 1.1 ± 0.27 | transient and slight increase | always prominently higher than that at 1 μM | remained below that in untreated cells | doubled | slightly reduced | enhanced wound gap closure | less effective than cilengitide (L2) in blocking cell migration | approximately 80% | performed as inhibitors of cell attachment |  |  |  | 
2 | C#CCCC(=O)NCCCOc1cc(C)c(C(=O)N[C@@H](CNC(=O)CNC(=O)c2cccc(NC(=N)N)c2)C(=O)O)c(C)c1 [L5, (S)-2-(2,6-Dimethyl-4-(3-(pent-4-ynamido)propoxy)benzamido)-3-(2-(3-guanidinobenzamido)acetamido)propanoic Acid] | > 1000 |  |  |  |  |  | did not alter their migratory capacity | no abrogation of cell migration was observed |  |  | unexpectedly increased | equal or slightly higher than those in untreated cells |  | 
3 | c(FRGDLAFp(NMe)K) [L3] |  |  |  |  |  |  |  |  |  |  |  |  | neither antagonistic nor agonistic effects | not changed
